For 33 compounds, Ki results are on record in US20170247393A1, “Aminoisoxazoline Compounds as Agonists of Alpha7-Nicotinic Acetylcholine Receptors” (Forum Pharmaceuticals, Inc., priority 2015, published 2017).

One experiment concerns the target human α7 nAChR (Homo sapiens, UniProt P36544). Conditions: reference compound in the above described human α7 nAChR binding assay provided by Cerep.
Experiment [1] addresses recombinantly expressed human α7-nAChR (Homo sapiens, UniProt P36544). Conditions: literature value, [125I] α-BTX radioligand, read-out: Ki (lit); cited from earlier work.
Experiment [2] deals with T1, human 5-HT3 serotonin receptors (Homo sapiens, UniProt P46098).
T1 sequence (P46098 24-478): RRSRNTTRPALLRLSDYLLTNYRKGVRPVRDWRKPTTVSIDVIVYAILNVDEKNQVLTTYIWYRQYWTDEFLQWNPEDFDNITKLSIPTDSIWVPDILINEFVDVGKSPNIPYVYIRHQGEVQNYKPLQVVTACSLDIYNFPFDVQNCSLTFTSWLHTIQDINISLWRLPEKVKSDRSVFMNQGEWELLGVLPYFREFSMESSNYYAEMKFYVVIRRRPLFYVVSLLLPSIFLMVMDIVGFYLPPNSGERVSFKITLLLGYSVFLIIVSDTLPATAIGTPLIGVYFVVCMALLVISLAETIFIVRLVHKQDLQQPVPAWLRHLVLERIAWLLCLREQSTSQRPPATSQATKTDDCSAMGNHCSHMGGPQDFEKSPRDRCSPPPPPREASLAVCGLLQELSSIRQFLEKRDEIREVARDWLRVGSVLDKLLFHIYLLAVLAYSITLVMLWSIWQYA
The experiment is described as follows: biochemical. Format: binding.

Where [3] appears, read: CHO cell membranes expressing human 5-HT3 receptors, [3H]BRL 43694, 120 min at room temperature, read-out: h-5HT3 Ki.

Where a name gives a salt, the structure may show the parent alone. Read-outs that look alike come from different tables or passages of the source.

Chain of human α7 nAChR (P36544 23-502): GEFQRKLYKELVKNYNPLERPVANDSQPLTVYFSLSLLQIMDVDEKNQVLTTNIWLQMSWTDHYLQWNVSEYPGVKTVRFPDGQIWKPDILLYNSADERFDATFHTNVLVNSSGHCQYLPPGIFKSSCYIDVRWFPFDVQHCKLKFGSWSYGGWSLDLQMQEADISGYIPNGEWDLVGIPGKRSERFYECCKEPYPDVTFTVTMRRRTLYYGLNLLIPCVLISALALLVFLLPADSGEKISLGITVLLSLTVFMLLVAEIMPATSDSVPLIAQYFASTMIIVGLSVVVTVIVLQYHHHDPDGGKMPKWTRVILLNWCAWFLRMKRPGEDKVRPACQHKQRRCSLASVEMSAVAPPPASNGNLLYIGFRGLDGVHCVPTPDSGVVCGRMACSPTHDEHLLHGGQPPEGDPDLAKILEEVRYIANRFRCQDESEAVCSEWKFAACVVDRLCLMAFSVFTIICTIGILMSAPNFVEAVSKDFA
Chain of recombinantly expressed human α7-nAChR (P36544 23-502): as above

With `Cc1ccc(-c2ccc(OC3CN4CCC3CC4)cn2)cc1` (stereo not shown) [AQW051], the figures for the Ki (at human α7 nAChR; in experiment [1]) were 0.255 µM and 0.028 µM, respectively.

Take `Clc1cccc2cc(NC3=NO[C@@]4(C3)CN3CCC4CC3)ncc12` [(R)-23, (R)—N-(8-chloroisoquinolin-3-yl)-4H-1′-azaspiroksoxazole-5,3^1-bicyclo[2.2.2]octan1-3-amine hydrochloride]: in experiment [2] (setting [3]), the Ki came to 1.2 µM.

For the compound `Clc1cccc2nc(NC3=NO[C@@]4(C3)CN3CCC4CC3)sc12` [(R)-11, (R)—N-(7-chlorobenzo[d]thiazol-2-yl)-4H-1′-azaspiro[isoxazole-5,3′-bicyclo[2.2.2]octan]-3-amine], the Ki in experiment [2] (setting [3]) worked out at 0.305 µM.

On to `Fc1c(Cl)sc2cc(NC3=NO[C@@]4(C3)CN3CCC4CC3)ccc12` [(R)-78, (R)—N-(2-chloro-3-fluorobenzo[b]thiophen-6-yl)-4H-1′-azaspiro[isoxazole-5,3′-bicyclo[2.2.2]octan]-3-amine hydrochloride], for which the Ki in experiment [2] (setting [3]) was greater than 10 µM.

Turning to `Cc1cc2ccc(NC3=NO[C@@]4(C3)CN3CCC4CC3)cc2o1` [(R)-40, (R)—N-(2-methylbenzofuran-6-yl)-4H-1′-azaspiro[isoxazole-5,3′-bicyclo[2.2.2]octan]-3-amine hydrochloride], the Ki in experiment [2] (setting [3]) is greater than 10 µM.

Take `c1cc2sc(NC3=NO[C@@]4(C3)CN3CCC4CC3)nc2cc1C1CC1` [(R)-26, (R)—N -(5-cyclopropylbenzo[d]thiazol-2-yl)-4H-1′-azaspiro[isoxazole-5,3′-bicyclo[2.2.2]octan]-3-amine hydrochloride]: in experiment [2] (setting [3]), the Ki stood at 3.1 µM.

Consider `Cc1cc2cnc(NC3=NO[C@@]4(C3)CN3CCC4CC3)nc2s1` [(R)-52, (R)—N-(6-methylthieno[2,3-d]pyrimidin-2-yl)-4H-1′-azaspiro[isoxazole-5,3′-bicyclo[2.2.2]octan]-3-amine hydrochloride], for which the Ki in experiment [2] (setting [3]) is greater than 10 µM.

In turn, `Cc1cc2cnc(NC3=NO[C@@]4(C3)CN3CCC4CC3)cc2s1` [(R)-99, (R)-N-(2-methylthieno[3,2-c]pyridin-6-yl)spiro[4H-isoxazole-5,3′-quinuclidine]-3-amine hydrochloride] showed a Ki in experiment [2] greater than 10 µM.

Take `c1ccc2cc(NC3=NOC4(C3)CN3CCC4CC3)ncc2c1` (single isomer, unassigned) [Compound 2-P2, N-(isoquinolin-3-yl)-4H-1′-azaspiro[isoxazole-5,3′-bicyclo[2.2.2]octan]-3-amine]: in experiment [2] (setting [3]), the Ki was found to be 0.81 µM.

In the case of `Cn1ncc2cc(NC3=NO[C@@]4(C3)CN3CCC4CC3)ccc21` [(R)-65, (R)—N-(1-methyl-1H-indazol-5-yl)-4H-1′-azaspiro[isoxazole-5,3′-bicyclo[2.2.2]octan]-3-amine hydrochloride], the Ki in experiment [2] (setting [3]) was greater than 10 µM.

As for `Cc1csc2cc(NC3=NO[C@@]4(C3)CN3CCC4CC3)ccc12` [(R)-56, (R)—N -(3-methylbenzo[b]thiophen-6-yl)-4H-1′-azaspiro[isoxazole-5,3′-bicyclo[2.2.2]octan]-3-amine hydrochloride], the Ki in experiment [2] (setting [3]) is greater than 10 µM.

For `Fc1sc2cc(NC3=NO[C@@]4(C3)CN3CCC4CC3)ccc2c1F` [(R)-55, hydrochloride], the Ki in experiment [2] (setting [3]) came out at 2.2 µM.

With `Cc1cc2ccc(NC3=NO[C@@]4(C3)CN3CCC4CC3)nc2s1` [(R)-53, (R)—N-(2-methylthieno[2,3-b]pyridin-6-yl)-4H-1′-azaspiro[isoxazole-5,3′-bicyclo[2.2.2]octan]-3-amine hydrochloride], the Ki in experiment [2] (setting [3]) was greater than 10 µM.

Turning to `Clc1cc2nc(NC3=NO[C@@]4(C3)CN3CCC4CC3)sc2cc1Cl` [(R)-30, (R)—N-(5 ,6 - dichlor obenzo[d]thiazol-2-yl)-4H-1′-azaspiro[isoxazole-5,3′-bicyclo[2.2.2]octan]-3-amine hydrochloride], the Ki in experiment [2] (setting [3]) was greater than 10 µM.

As to `Clc1ccc(NC2=NO[C@@]3(C2)CN2CCC3CC2)cc1` [(R)-20, (R)—N-(4-chlorophenyl)-4H-1′-azaspiro[isoxazole-5,3′-bicyclo[2.2.2]octan]-3-amine hydrochloride], the affinity in experiment [2], expressed as Ki, was 0.11 µM.

`Cc1cc2cnc(NC3=NO[C@@]4(C3)CN3CCC4CC3)nc2o1` [(R)-75, (R)—N-(6-methylfuro[2,3-d]pyrimidin-2-yl)spiro[4H-isoxazole-5,3′-quinuclidine]-3-amine hydrochloride]: the Ki in experiment [2] (setting [3]) is greater than 10 µM.

As to `c1cnc2ccc(NC3=NO[C@@]4(C3)CN3CCC4CC3)cc2c1` [(R)-80, (R)—N-(quinolin-6-yl)-41-1-1^1-azaspiro[isoxazole-5,3′-bicyclo[2.2.2]octan]-3-amine hydrochloride], in experiment [2] (setting [3]), the Ki is greater than 10 µM.

As for `Cc1noc2cc(NC3=NO[C@@]4(C3)CN3CCC4CC3)ccc12` [(R)-66, (R)—N -(3-methylbenzo[d]isoxazol-6-yl)-4H-1′-azaspiro[isoxazole-5,3′-bicyclo[2.2.2]octan]-3-amine hydrochloride], the Ki in experiment [2] (setting [3]) was 4.5 µM.

Turning to `Cn1ncc2ccc(NC3=NO[C@@]4(C3)CN3CCC4CC3)cc21` [(R)-64, (R)—N-(1-methyl-1H-indazol-6-yl)-4H-1′-azaspiro[isoxazole-5,3′-bicyclo[2.2.2]octan]-3-amine hydrochloride], the Ki in experiment [2] (setting [3]) is greater than 10 µM.

Take `Cc1cc2ccc(NC3=NO[C@@]4(C3)CN3CCC4CC3)cc2s1` [(R)-42, (R)—N-(2-methylbenzo[b]thiophen-6-yl)-4H-1′-azaspiro[isoxazole-5,3′-bicyclo[2.2.2]octan]-3-amine hydrochloride]: the Ki in experiment [2] (setting [3]) is greater than 10 µM.

For `Fc1cc2cnc(NC3=NO[C@@]4(C3)CN3CCC4CC3)cc2cc1Cl` [(R)-81, (R)—N-(6-chloro-7-fluoroisoquinolin-3-yl)-4H-1′-azaspiro[isoxazole-5,3^1-bicyclo[2.2.2]octan]-3-amine hydrochloride], the Ki in experiment [2] (setting [3]) is greater than 10 µM.

For the compound `COc1ccc2cc(NC3=NO[C@@]4(C3)CN3CCC4CC3)ncc2c1` [(R)-46, (R)—N-(7-methoxyisoquinolin-3-yl)-4H-1′-azaspiro[isoxazole-5,3′-bicyclo[2.2.2]octan]-3-amine hydrochloride], in experiment [2] (setting [3]), the Ki is greater than 10 µM.

For the compound `Fc1cc2cnc(NC3=NO[C@@]4(C3)CN3CCC4CC3)cc2cc1F` [(R)-61, (R)—N-(6,7-difluoroisoquinolin-3-yl)-4H-1′-azaspiro[isoxazole-5,3′-bicyclo[2.2.2]octan]-3-amine hydrochloride], the Ki in experiment [2] (setting [3]) was greater than 10 µM.

Turning to `Clc1ccc2cc(NC3=NO[C@@]4(C3)CN3CCC4CC3)ncc2c1` [(R)-19, (R)—N-(7-chloroisoquinolin-3-yl)-4H-1′-azaspiro[isoxazole-5,3′-bicyclo[2.2.2]octan]-3-amine hydrochloride], in experiment [2] (setting [3]), the Ki is greater than 10 µM.

For `Clc1ccc2sc(NC3=NOC4(C3)CN3CCC4CC3)nc2c1` (single isomer, unassigned) [Compound 9-P2, N-(5-chlorobenzo[d]thiazol-2-yl)-4H-1′-azaspiro[isoxazole-5,3′-bicyclo[2.2.2]octan]-3-amine], in experiment [2] (setting [3]), the Ki was greater than 10 µM.

For the compound `Clc1cc2ccc(NC3=NO[C@@]4(C3)CN3CCC4CC3)cc2o1` [(R)-63, (R)—N-(2-chlorobenzofuran-6-yl)-4H-1′-azaspiro[isoxazole-5,3′-bicyclo[2.2.2]octan]-3-amine hydrochloride], the Ki in experiment [2] (setting [3]) is greater than 10 µM.

With `Clc1cc2ccc(NC3=NO[C@@]4(C3)CN3CCC4CC3)cc2s1` [(R)-54, (R)—N-(2-chlorobenzo[b]thiophen-6-yl)-4H-F-azaspiroksoxazole-5,3^1-bicyclo[2.2.2]octan1-3-amine hydrochloride], the Ki in experiment [2] (setting [3]) is greater than 10 µM.

As to `Cc1ccc2cc(NC3=NO[C@@]4(C3)CN3CCC4CC3)ncc2c1` [(R)-59, (R)—N-(7-methylisoquinolin-3-yl)-4H-1′-azaspiro[isoxazole-5,3′-bicyclo[2.2.2]octan]-3-amine hydrochloride], the Ki in experiment [2] (setting [3]) is greater than 10 µM.

As for `c1cnc2cc(NC3=NO[C@@]4(C3)CN3CCC4CC3)ccc2c1` [(R)-79, (R)—N-(quinolin-7-yl)-4H-1′-azaspiro[isoxazole-5,3′-bicyclo[2.2.2]octan]-3-amine hydrochloride], the Ki in experiment [2] (read-out: h-5HT3 Ki) came out at 5.6 µM.

For the compound `Clc1cccc(NC2=NO[C@@]3(C2)CN2CCC3CC2)c1` [(R)-34, (R)—N-(3-chlorophenyl)-4H-1′-azaspiro[isoxazole-5,3′-bicyclo[2.2.2]octan]-3-amine hydrochloride], the Ki in experiment [2] was found to be 0.012 µM.

Regarding `Clc1cccc2cnc(NC3=NO[C@@]4(C3)CN3CCC4CC3)cc12` [(R)-24, (R)—N -(5-chloroisoquinolin-3-yl)-4H-1′-azaspiroksoxazole-5,3′-bicyclo[2.2.2]octan1-3-amine hydrochloride], the Ki in experiment [2] (setting [3]) came out at 0.26 µM.

Regarding `Cc1nsc2cc(NC3=NO[C@@]4(C3)CN3CCC4CC3)ccc12` [(R)-72, (R)—N-(3-methylbenzo[d]isothiazol-6-yl)-4H-1′-azaspiro[isoxazole-5,3′-bicyclo[2.2.2]octan]-3-amine hydrochloride], the inhibition constant (Ki) in experiment [2] (setting [3]) was greater than 10 µM.

The compound `Clc1ccc(NC2=NOC3(C2)CN2CCC3CC2)cc1` (single isomer, unassigned) [Compound 20-P1, N-(4-chlorophenyl)-4H-1′-azaspiro[isoxazole-5,3′-bicyclo[2.2.2]octan]-3-amine] yielded a Ki in experiment [2] of 0.069 µM.
